Test results taken from patent US20060083657A1, “Indicator device having an active agent encapsulated in an electrospun nanofiber” (STERIS Inc., priority 2004, published 2006).

Columns and labels:
[1] = system: Escherichia coli ATCC 25922; assay: Disk diffusion method, zone of inhibition on lawn plates; assay type: cell-based; settings: polymer mat disk, 37° C., 7 days
Protocol: (§1) The effectiveness of the CHG polymer mat was investigated using a disk diffusion method on Staphylococcus aureus ATCC 6538 and Escherichia coli ATCC 25922 lawn plates. The plates were prepared for each organism by dispensing and spreading 0.1 mL of the bacterium over the entire surface of prepared tryptic soy agar plates to create a “lawn.” Concentrations of chlorhexidine gluconate (CHG) at 0.25%, 0.5%, and 1.0% were electrospun with Tecoflex to produce an antimicrobial polymer mat. The polymer mats were cut into two 0.5-1.0 inch diameter disks for each CHG concentration. One disk per plate was placed into the center of the bacterial plate The plates were then incubated at 37° C. for 7 days to determine the zone of inhibition or antimicrobial coverage around the disk (measured in millimeters diameter), which simulates the persistence of an antimicrobial dressing to inactivate resident microorganisms on the skin. For S. aureus, 0.25%, 0.50%, and 1.0% CHG was effective showing mean zones of 20 mm, 25 mm, and 25 mm zones, respectively at 7 days, while at the same concentrations E. coli mean zones were 11 mm, 23 mm, and 28 mm.

[2] = system: Staphylococcus aureus ATCC 6538; assay: as above; assay type: cell-based; settings: polymer mat disk, 37° C., 7 days
Protocol: as §1

[3] = 0.25% CHG electrospun with Tecoflex
[4] = 0.50% CHG electrospun with Tecoflex
[5] = 1.0% CHG electrospun with Tecoflex

N=C(NCCCCCCNC(=N)NC(=N)Nc1ccc(Cl)cc1)NC(=N)Nc1ccc(Cl)cc1.O=C(O)[C@H](O)[C@@H](O)[C@H](O)[C@H](O)CO.O=C(O)[C@H](O)[C@@H](O)[C@H](O)[C@H](O)CO [CHG, Chlorhexidine Gluconate]
mean zone of inhibition (diameter) [1, 3]: 11 mm
mean zone of inhibition (diameter) [1, 4]: 23 mm
mean zone of inhibition (diameter) [1, 5]: 28 mm
mean zone of inhibition (diameter) [2, 3]: 20 mm
mean zone of inhibition (diameter) [2, 4]: 25 mm
mean zone of inhibition (diameter) [2, 5]: 25 mm
